Measurements: patent US9307766B2, “Isoxazoline derivatives as insecticidal compounds” (Syngenta Participations AG, priority 2011, dated 2016)

Tests used:
Assay type in all cases: in vivo
[1] = test system: Thrips tabaci; assay: Thrips tabaci (onion thrips) leaf disc spray test; settings: foliar, 168 h, 200 ppm sprayed on sunflower leaf discs, thrip population of mixed ages, mortality after 7 days
Experimental: Thrips tabaci (Onion Thrips):
Sunflower leaf discs were placed on agar in a 24-well microtiter plate and sprayed with test solutions at an application rate of 200 ppm. After drying, the leaf discs were infested with a thrip population of mixed ages. After an incubation period of 7 days, samples were checked for mortality.

[2] = test system: Spodoptera littoralis; assay: Spodoptera littoralis (Egyptian cotton leafworm) leaf disc spray test; settings: foliar, 72 h, 200 ppm sprayed on cotton leaf discs, L1 larvae, mortality, feeding behavior, growth regulation 3 days after treatment
Excerpt: Spodoptera littoralis (Egyptian Cotton Leafworm):
Cotton leaf discs were placed on agar in a 24-well microtiter plate and sprayed with test solutions at an application rate of 200 ppm. After drying, the leaf discs were infested with 5 L1 larvae. The samples were checked for mortality, feeding behavior, and growth regulation 3 days after treatment (DAT).

[3] = test system: Heliothis virescens; assay: Heliothis virescens (tobacco budworm) egg test on artificial diet; settings: 96 h, 200 ppm (concentration in well 18 ppm) by pipetting, eggs 0-24 h old on artificial diet, egg mortality, larval mortality, growth regulation after 4 days
Experimental: Heliothis virescens (Tobacco Budworm):
Eggs (0-24 h old) were placed in 24-well microtiter plate on artificial diet and treated with test solutions at an application rate of 200 ppm (concentration in well 18 ppm) by pipetting. After an incubation period of 4 days, samples were checked for egg mortality, larval mortality, and growth regulation.

[4] = test system: Tetranychus urticae; assay: Tetranychus urticae (two-spotted spider mite) leaf disc spray test; settings: foliar, 192 h, 200 ppm sprayed on bean leaf discs, mite populations of mixed ages, egg, larval and adult mortality 8 days later
Excerpt: Tetranychus urticae (Two-Spotted Spider Mite):
Bean leaf discs on agar in 24-well microtiter plates were sprayed with test solutions at an application rate of 200 ppm. After drying, the leaf discs are infested with mite populations of mixed ages. 8 days later, discs are checked for egg mortality, larval mortality, and adult mortality.

[5] = test system: Plutella xylostella; assay: Plutella xylostella (diamond back moth) artificial diet test; settings: 144 h, 200 ppm (concentration in well 18 ppm) on artificial diet, L2 larvae, larval mortality and growth regulation after 6 days
Experimental: Plutella xylostella (Diamond Back Moth):
(§1) 24-well microtiter plate (MTP) with artificial diet was treated with test solutions at an application rate of 200 ppm (concentration in well 18 ppm) by pipetting. After drying, the MTP's were infested with L2 larvae (7-12 per well). After an incubation period of 6 days, samples were checked for larval mortality and growth regulation.

[6] = test system: Diabrotica balteata; assay: Diabrotica balteata (corn root worm) artificial diet test; settings: 120 h, 200 ppm (concentration in well 18 ppm) on artificial diet, L2 larvae, larval mortality and growth regulation after 5 days
Experimental: Diabrotica balteata (Corn Root Worm):
as §1, with “A 24-well” for “24-well”, “(6-10” for “(7-12”, “5” for “6”

Measured: pest or weed control at 200 ppm

O=C(NC1CS(=O)(=O)C1)c1ccc(C2=NOC(c3cc(Cl)cc(Cl)c3)(C(F)(F)F)C2Br)c2ccccc12 (stereo not drawn) [Compound D01, 4-[4-bromo-5-(3,5-dichlorophenyl)-5-(trifluoromethyl)-4H-isoxazol-3-yl]-N-(1,1-dioxothietan-3-yl)naphthalene-1-carboxamide]
≥ 80%: all assays above

CC1(NC(=O)c2ccc(C3=NOC(c4cc(Cl)cc(Cl)c4)(C(F)(F)F)C3Br)c3ccccc23)CSC1 (stereo not drawn) [Compound D02, 4-[4-bromo-5-(3,5-dichlorophenyl)-5-(trifluoromethyl)-4H-isoxazol-3-yl]-N-(3-methylthietan-3-yl)naphthalene-1-carboxamide]
≥ 80%: all assays above

O=C(NC1C[S+]([O-])C1)c1ccc(C2=NOC(c3cc(Cl)cc(Cl)c3)(C(F)(F)F)C2Br)c2ccccc12 (stereo not drawn) [Compound D03, 4-[4-bromo-5-(3,5-dichlorophenyl)-5-(trifluoromethyl)-4H-isoxazol-3-yl]-N-(1-oxothietan-3-yl)naphthalene-1-carboxamide]
≥ 80%: all assays above

O=C(NC1CSC1)c1ccc(C2=NOC(c3cc(Cl)cc(Cl)c3)(C(F)(F)F)C2Br)c2ccccc12 (stereo not drawn) [Compound D04, 4-[4-bromo-5-(3,5-dichlorophenyl)-5-(trifluoromethyl)-4H-isoxazol-3-yl]-N-(thietan-3-yl)naphthalene-1-carboxamide]
≥ 80%: all assays above

O=C(CNC(=O)c1ccc(C2=NOC(c3cc(Cl)cc(Cl)c3)(C(F)(F)F)C2)c2ccccc12)NC1CS(=O)(=O)C1 (stereo not drawn) [Compound D05, 4-[5-(3,5-dichlorophenyl)-5-(trifluoromethyl)-4H-isoxazol-3-yl]-N-[2-[(1,1-dioxothietan-3-yl)amino]-2-oxo-ethyl]naphthalene-1-carboxamide]
≥ 80%: all assays above

CC1(NC(=O)CNC(=O)c2ccc(C3=NOC(c4cc(Cl)cc(Cl)c4)(C(F)(F)F)C3)c3ccccc23)CSC1 (stereo not drawn) [Compound D06, 4-[5-(3,5-dichlorophenyl)-5-(trifluoromethyl)-4H-isoxazol-3-yl]-N-[2-[(3-methylthietan-3-yl)amino]-2-oxo-ethyl]naphthalene-1-carboxamide]
≥ 80%: all assays above

O=C(CNC(=O)c1ccc(C2=NOC(c3cc(Cl)cc(Cl)c3)(C(F)(F)F)C2)c2ccccc12)NC1C[S+]([O-])C1 (stereo not drawn) [Compound D07, 4-[5-(3,5-dichlorophenyl)-5-(trifluoromethyl)-4H-isoxazol-3-yl]-N-[2-oxo-2-[(1-oxothietan-3-yl)amino]ethyl]naphthalene-1-carboxamide]
≥ 80%: [1] | [2] | [4] | [5]

O=C(CNC(=O)c1ccc(C2=NOC(c3cc(Cl)cc(Cl)c3)(C(F)(F)F)C2)c2ccccc12)NC1CSC1 (stereo not drawn) [Compound D08, 4-[5-(3,5-dichlorophenyl)-5-(trifluoromethyl)-4H-isoxazol-3-yl]-N-[2-oxo-2-(thietan-3-ylamino)ethyl]naphthalene-1-carboxamide]
not listed: [3]
≥ 80%: all other assays above

O=C(NC1CS(=O)(=O)C1)c1ccc(C2=NOC(c3cc(Cl)cc(Cl)c3)(C(F)(F)F)C2)c2ncccc12 (stereo not drawn) [Compound D09, 8-[5-(3,5-dichlorophenyl)-5-(trifluoromethyl)-4H-isoxazol-3-yl]-N-(1,1-dioxothietan-3-yl)quinoline-5-carboxamide]
≥ 80%: [2] | [5]

O=C(NC1CSC1)c1ccc(C2=NOC(c3cc(Cl)cc(Cl)c3)(C(F)(F)F)C2)c2ncccc12 (stereo not drawn) [Compound D10, 8-[5-(3,5-dichlorophenyl)-5-(trifluoromethyl)-4H-isoxazol-3-yl]-N-(thietan-3-yl)quinoline-5-carboxamide]
≥ 80%: [2] | [3] | [5] | [6]

O=C(NC1C[S+]([O-])C1)c1ccc(C2=NOC(c3cc(Cl)cc(Cl)c3)(C(F)(F)F)C2)c2ncccc12 (stereo not drawn) [Compound D11, 8-[5-(3,5-dichlorophenyl)-5-(trifluoromethyl)-4H-isoxazol-3-yl]-N-(1-oxothietan-3-yl)quinoline-5-carboxamide]
≥ 80%: [2] | [3] | [5]

O=C(NC1CSC1)c1ccc(C2=NOC(c3cc(Cl)cc(Cl)c3)(C(F)(F)F)C2)c2cccnc12 (stereo not drawn) [Compound D12, 5-[5-(3,5-dichlorophenyl)-5-(trifluoromethyl)-4H-isoxazol-3-yl]-N-(thietan-3-yl)quinoline-8-carboxamide]
≥ 80%: all assays above

O=C(NC1CS(=O)(=O)C1)c1cnc(C2=NOC(c3cc(Cl)cc(Cl)c3)(C(F)(F)F)C2)c2ccccc12 (stereo not drawn) [Compound D13, 1-[5-(3,5-dichlorophenyl)-5-(trifluoromethyl)-4H-isoxazol-3-yl]-N-(1,1-dioxothietan-3-yl)isoquinoline-4-carboxamide]
≥ 80%: [2] | [3] | [5] | [6]

CC1(NC(=O)c2cnc(C3=NOC(c4cc(Cl)cc(Cl)c4)(C(F)(F)F)C3)c3ccccc23)CSC1 (stereo not drawn) [Compound D14, 1-[5-(3,5-dichlorophenyl)-5-(trifluoromethyl)-4H-isoxazol-3-yl]-N-(3-methylthietan-3-yl)isoquinoline-4-carboxamide]
not listed: [2]
≥ 80%: all other assays above

O=C(NC1CSC1)c1cnc(C2=NOC(c3cc(Cl)cc(Cl)c3)(C(F)(F)F)C2)c2ccccc12 (stereo not drawn) [Compound D15, 1-[5-(3,5-dichlorophenyl)-5-(trifluoromethyl)-4H-isoxazol-3-yl]-N-(thietan-3-yl)isoquinoline-4-carboxamide]
≥ 80%: all assays above

O=C(NC1C[S+]([O-])C1)c1cnc(C2=NOC(c3cc(Cl)cc(Cl)c3)(C(F)(F)F)C2)c2ccccc12 (stereo not drawn) [Compound D16, 1-[5-(3,5-dichlorophenyl)-5-(trifluoromethyl)-4H-isoxazol-3-yl]-N-(1-oxothietan-3-yl)isoquinoline-4-carboxamide]
≥ 80%: all assays above
